Values after ≈ are worked out from the molar mass of the structure shown. Read-outs that look alike come from different tables or passages of the source.
What was measured:
[1] = target: T1, full-length beta-Catenin (Uniprot ID P35222) (Homo sapiens, UniProt P35222); assay: Fluorescence polarization IC50 (beta-catenin / 5FAM-TCF4 10-53 competition); assay type: binding
T1 construct: 10 nM full-length beta-Catenin (Uniprot ID P35222)
T1 sequence (P35222 1-781): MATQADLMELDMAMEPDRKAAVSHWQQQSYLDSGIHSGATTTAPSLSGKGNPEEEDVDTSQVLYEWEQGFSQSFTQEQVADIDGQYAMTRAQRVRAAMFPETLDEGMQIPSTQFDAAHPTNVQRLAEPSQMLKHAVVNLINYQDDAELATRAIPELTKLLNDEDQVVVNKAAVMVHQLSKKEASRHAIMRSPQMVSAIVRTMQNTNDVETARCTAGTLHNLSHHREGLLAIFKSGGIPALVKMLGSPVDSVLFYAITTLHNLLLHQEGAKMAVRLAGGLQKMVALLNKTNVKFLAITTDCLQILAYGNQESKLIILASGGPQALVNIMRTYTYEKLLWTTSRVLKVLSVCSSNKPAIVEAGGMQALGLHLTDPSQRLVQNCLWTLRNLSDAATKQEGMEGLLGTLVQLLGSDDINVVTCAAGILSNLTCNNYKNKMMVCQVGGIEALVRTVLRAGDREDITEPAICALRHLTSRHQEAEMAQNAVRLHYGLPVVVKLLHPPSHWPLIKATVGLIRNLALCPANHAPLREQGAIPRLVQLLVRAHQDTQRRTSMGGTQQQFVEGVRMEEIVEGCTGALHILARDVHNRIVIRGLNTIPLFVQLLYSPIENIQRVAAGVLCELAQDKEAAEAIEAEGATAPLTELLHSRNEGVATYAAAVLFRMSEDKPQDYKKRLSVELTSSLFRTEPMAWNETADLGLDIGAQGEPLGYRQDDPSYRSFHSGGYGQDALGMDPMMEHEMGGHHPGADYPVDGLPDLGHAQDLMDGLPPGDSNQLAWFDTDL

Solubility in PBS = assay type: physicochemical
Summary of the method: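 Read-out is the HPLC peak area of the supernatant from ultracentrifuged PBS solution, scaled against a 50 μM peptide DMSO injection; value reported as [(PBS area)/(DMSO area)]*50 uM.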

CHI Log D procedure = assay type: physicochemical; settings: for CHI Log D: pH 7.4; for chromatographic logD: pH 7.4, CHI Log D
[2] = fluorescence polarization, read-out: beta-Catenin FP IC50

Compound	IC50 [1, 2]	IC50 ([1]; read-out: FP EC50)	Solubility (Solubility in PBS)	CHI Log D (CHI Log D procedure)	Solubility (Solubility in PBS; Solubility (uM))	chromatographic logD (CHI Log D procedure)
CC(=O)N1CCC[C@]12CC=CCCCC1(CCCC=CCCCCCC[C@@](C)(C(=O)N[C@@H](Cc3ccsc3)C(=O)N[C@@H](Cc3csc4ccccc34)C(N)=O)NC(=O)[C@H](CC(N)=O)NC(=O)[C@H](Cc3ccccc3)NC(=O)[C@H](C)NC(=O)[C@H](C)NC(=O)[C@H](CCC(=O)O)NC(=O)[C@H](CC(=O)O)NC1=O)NC(=O)[C@H](CC(C)C)NC(=O)[C@H](CC(=O)O)NC2=O (stereo partly drawn) [I-717, Ac-PL3-Asp-Leu-B5-Asp-Glu-Ala-Ala-Phe-Asn-S8-3Thi-BztA-NH2]	39 nM	39 nM	35 µM (≈ 61.1 µg/mL)	2.694		
CC(=O)N1CCC[C@]12CC=CCCCC1(CCCC=CCCCCCC[C@@](C)(C(=O)N[C@@H](Cc3ccsc3)C(=O)N[C@@H](Cc3csc4ccccc34)C(N)=O)NC(=O)[C@H](CC(N)=O)NC(=O)[C@H](Cc3ccccc3)NC(=O)[C@H](C)NC(=O)[C@H](C)NC(=O)[C@H](CCC(=O)O)NC(=O)[C@H](CC(=O)O)NC1=O)NC(=O)[C@H](CC(C)(C)C)NC(=O)[C@H](CC(=O)O)NC2=O (stereo partly drawn) [I-718, Ac-PL3-Asp-Npg-B5-Asp-Glu-Ala-Ala-Phe-Asn-S8-3Thi-BztA-NH2]	82 nM	82 nM	38 µM (≈ 66.9 µg/mL)	2.765		
CC(=O)N1CCC[C@]12CC=CCCCC1(CCCC=CCCCCCC[C@@](C)(C(=O)N[C@@H](Cc3ccsc3)C(=O)N[C@@H](Cc3csc4ccccc34)C(N)=O)NC(=O)[C@H](CC(N)=O)NC(=O)[C@H](Cc3ccccc3)NC(=O)[C@H](C)NC(=O)[C@H](C)NC(=O)[C@H](CCC(=O)O)NC(=O)[C@H](CC(=O)O)NC1=O)NC(=O)[C@H](CC(C)(C)C)NC(=O)[C@H](CC(=O)O)NC2=O (stereo partly drawn) [I-719, Ac-PL3-Asp-Npg-B5-Asp-Glu-Ala-Ala-Phe-Asn-S8-3Thi-BztA-NH2]	38 nM	38 nM	28 µM (≈ 49.3 µg/mL)	2.818		
CC[C@H](C)[C@@H]1NC(=O)[C@H](CC(=O)O)NC(=O)[C@]2(CC=CCCCC3(CCCC=CCCCCCC[C@@](C)(C(=O)N[C@@H](Cc4ccsc4)C(=O)N[C@@H](Cc4csc5ccccc45)C(N)=O)NC(=O)[C@H](CC(N)=O)NC(=O)[C@H](Cc4ccccc4)NC(=O)[C@H](C)NC(=O)[C@H](C)NC(=O)[C@H](CCC(=O)O)NC(=O)[C@H](CC(=O)O)NC3=O)NC1=O)CCCN2C(C)=O (stereo partly drawn) [I-720, Ac-PL3-Asp-Ile-B5-Asp-Glu-Ala-Ala-Phe-Asn-S8-3Thi-BztA-NH2]	75 nM	75 nM	33 µM (≈ 57.7 µg/mL)	2.665		
CC[C@H](C)[C@@H]1NC(=O)[C@H](CC(=O)O)NC(=O)[C@]2(CC=CCCCC3(CCCC=CCCCCCC[C@@](C)(C(=O)N[C@@H](Cc4ccsc4)C(=O)N[C@@H](Cc4csc5ccccc45)C(N)=O)NC(=O)[C@H](CC(N)=O)NC(=O)[C@H](Cc4ccccc4)NC(=O)[C@H](C)NC(=O)[C@H](C)NC(=O)[C@H](CCC(=O)O)NC(=O)[C@H](CC(=O)O)NC3=O)NC1=O)CCCN2C(C)=O (stereo partly drawn) [I-721, Ac-PL3-Asp-Ile-B5-Asp-Glu-Ala-Ala-Phe-Asn-S8-3Thi-BztA-NH2]	46 nM	46 nM	28 µM (≈ 48.9 µg/mL)	2.722		
CC[C@H](C)[C@@H]1NC(=O)[C@H](CC(=O)O)NC(=O)[C@]2(CC=CCCCC3(CCCC=CCCCCCC[C@@](C)(C(=O)N[C@@H](Cc4ccccc4)C(=O)N[C@@H](Cc4csc5ccccc45)C(=O)N[C@@H](CCC(N)=O)C(N)=O)NC(=O)[C@H](CCC(N)=O)NC(=O)[C@H](CC4CCCCC4)NC(=O)[C@H](C)NC(=O)[C@H](C)NC(=O)[C@H](CCC(=O)O)NC(=O)[C@H](CC(=O)O)NC3=O)NC1=O)CCCN2C(C)=O (stereo partly drawn) [I-722, Ac-PL3-Asp-Ile-B5-Asp-Glu-Ala-Ala-Cha-Gln-S8-Phe-BztA-Gln-NH2]	1130 nM				27 µM (≈ 51 µg/mL)	2.52
CC[C@H](C)[C@H](NC(=O)[C@H](CCC(N)=O)NC(=O)[C@H](Cc1csc2ccccc12)NC(=O)[C@H](Cc1ccccc1)NC(=O)[C@]1(C)CCCCCCC=CCCCC2(CCCC=CC[C@]3(CCCN3C(C)=O)C(=O)N[C@@H](CC(=O)O)C(=O)N[C@@H](CC(C)C)C(=O)N2)C(=O)N[C@@H](CC(=O)O)C(=O)N[C@@H](CCC(=O)O)C(=O)N[C@@H](C)C(=O)N[C@@H](C)C(=O)N[C@@H](Cc2ccccc2)C(=O)N[C@@H](CC(N)=O)C(=O)N1)C(N)=O (stereo partly drawn) [I-733, Ac-PL3-Asp-Leu-B5-Asp-Glu-Ala-Ala-Phe-Asn-S8-Phe-BztA-Gln-Ile-NH2]	4260 nM	4260 nM	43 µM (≈ 85.2 µg/mL)	2.154		

Second part, the molecule after the results:

IC50 [1, 2]	IC50 ([1]; read-out: FP EC50)	Solubility (Solubility in PBS)	CHI Log D (CHI Log D procedure)	Solubility (Solubility in PBS; Solubility (uM))	chromatographic logD (CHI Log D procedure)	Compound
3830 nM				29 µM (≈ 56.8 µg/mL)	2.58	CC[C@H](C)[C@@H]1NC(=O)[C@H](CC(=O)O)NC(=O)[C@]2(CC=CCCCC3(CCCC=CCCCCCC[C@@](C)(C(=O)N[C@@H](Cc4ccccc4)C(=O)N[C@@H](Cc4csc5ccccc45)C(=O)N[C@@H](CCC(N)=O)C(N)=O)NC(=O)[C@H](CCC(N)=O)NC(=O)[C@H](Cc4ccc(-c5ccccc5)cc4)NC(=O)[C@H](C)NC(=O)[C@H](C)NC(=O)[C@H](CCC(=O)O)NC(=O)[C@H](CC(=O)O)NC3=O)NC1=O)CCCN2C(C)=O (stereo partly drawn) [I-723, Ac-PL3-Asp-Ile-B5-Asp-Glu-Ala-Ala-Bip-Gln-S8-Phe-BztA-Gln-NH2]
114 nM				34 µM (≈ 65 µg/mL)	2.42	CC[C@H](C)[C@@H]1NC(=O)[C@H](CC(=O)O)NC(=O)[C@]2(CC=CCCCC3(CCCC=CCCCCCC[C@@](C)(C(=O)N[C@@H](Cc4ccccc4)C(=O)N[C@@H](Cc4csc5ccccc45)C(=O)N[C@@H](CCC(N)=O)C(N)=O)NC(=O)[C@H](CCC(N)=O)NC(=O)[C@H](Cc4cccc(OC)c4)NC(=O)[C@H](C)NC(=O)[C@H](C)NC(=O)[C@H](CCC(=O)O)NC(=O)[C@H](CC(=O)O)NC3=O)NC1=O)CCCN2C(C)=O (stereo partly drawn) [I-724, Ac-PL3-Asp-Ile-B5-Asp-Glu-Ala-Ala-3OMeF-Gln-S8-Phe-BztA-Gln-NH2]
5000 nM				42 µM (≈ 82.3 µg/mL)	2.61	CC[C@H](C)[C@@H]1NC(=O)[C@H](CC(=O)O)NC(=O)[C@]2(CC=CCCCC3(CCCC=CCCCCCC[C@@](C)(C(=O)N[C@@H](Cc4ccccc4)C(=O)N[C@@H](Cc4csc5ccccc45)C(=O)N[C@@H](CCC(N)=O)C(N)=O)NC(=O)[C@H](CCC(N)=O)NC(=O)[C@H](C(c4ccccc4)c4ccccc4)NC(=O)[C@H](C)NC(=O)[C@H](C)NC(=O)[C@H](CCC(=O)O)NC(=O)[C@H](CC(=O)O)NC3=O)NC1=O)CCCN2C(C)=O (stereo partly drawn) [I-725, Ac-PL3-Asp-Ile-B5-Asp-Glu-Ala-Ala-DipA-Gln-S8-Phe-BztA-Gln-NH2]
5000 nM				43 µM (≈ 80.4 µg/mL)	2.34	CC[C@H](C)[C@@H]1NC(=O)[C@H](CC(=O)O)NC(=O)[C@]2(CC=CCCCC3(CCCC=CCCCCCC[C@@](C)(C(=O)N[C@@H](Cc4ccccc4)C(=O)N[C@@H](Cc4csc5ccccc45)C(=O)N[C@@H](CCC(N)=O)C(N)=O)NC(=O)[C@H](CCC(N)=O)NC(=O)[C@H](c4ccccc4)NC(=O)[C@H](C)NC(=O)[C@H](C)NC(=O)[C@H](CCC(=O)O)NC(=O)[C@H](CC(=O)O)NC3=O)NC1=O)CCCN2C(C)=O (stereo partly drawn) [I-726, Ac-PL3-Asp-Ile-B5-Asp-Glu-Ala-Ala-Phg-Gln-S8-Phe-BztA-Gln-NH2]
5000 nM				26 µM (≈ 48.4 µg/mL)	2.41	CC[C@H](C)[C@@H]1NC(=O)[C@H](CC(=O)O)NC(=O)[C@]2(CC=CCCCC3(CCCC=CCCCCCC[C@@](C)(C(=O)N[C@@H](Cc4ccccc4)C(=O)N[C@@H](Cc4csc5ccccc45)C(=O)N[C@@H](CCC(N)=O)C(N)=O)NC(=O)[C@H](CCC(N)=O)NC(=O)[C@H](CC(C)(C)C)NC(=O)[C@H](C)NC(=O)[C@H](C)NC(=O)[C@H](CCC(=O)O)NC(=O)[C@H](CC(=O)O)NC3=O)NC1=O)CCCN2C(C)=O (stereo partly drawn) [I-727, Ac-PL3-Asp-Ile-B5-Asp-Glu-Ala-Ala-Npg-Gln-S8-Phe-BztA-Gln-NH2]
289 nM				38 µM (≈ 70.3 µg/mL)	2.35	CCCC[C@@H]1NC(=O)[C@H](C)NC(=O)[C@H](C)NC(=O)[C@H](CCC(=O)O)NC(=O)[C@H](CC(=O)O)NC(=O)C2(CCCC=CCCCCCC[C@@](C)(C(=O)N[C@@H](Cc3ccccc3)C(=O)N[C@@H](Cc3csc4ccccc34)C(=O)N[C@@H](CCC(N)=O)C(N)=O)NC(=O)[C@H](CCC(N)=O)NC1=O)CCCC=CC[C@]1(CCCN1C(C)=O)C(=O)N[C@@H](CC(=O)O)C(=O)N[C@@H]([C@@H](C)CC)C(=O)N2 (stereo partly drawn) [I-728, Ac-PL3-Asp-Ile-B5-Asp-Glu-Ala-Ala-nLeu-Gln-S8-Phe-BztA-Gln-NH2]
